Data from ChEMBL document CHEMBL3632489, “Inhibitory kinetics of novel 2,3-dihydro-1H-inden-1-one chalcone-like derivatives on mushroom tyrosinase” (Bioorg Med Chem Lett, 2015).
The source made the active and inactive calls. No cut-off for these calls is given here.

Legend:
[1] = biological target: T1, Tyrosinase (Agaricus bisporus) (UniProt O42713); assay: Potency index, ratio of IC50 for kojic acid to IC50 for test compound for inhibition of mushroom tyrosinase diphenolase activity
T1 sequence (whole entry): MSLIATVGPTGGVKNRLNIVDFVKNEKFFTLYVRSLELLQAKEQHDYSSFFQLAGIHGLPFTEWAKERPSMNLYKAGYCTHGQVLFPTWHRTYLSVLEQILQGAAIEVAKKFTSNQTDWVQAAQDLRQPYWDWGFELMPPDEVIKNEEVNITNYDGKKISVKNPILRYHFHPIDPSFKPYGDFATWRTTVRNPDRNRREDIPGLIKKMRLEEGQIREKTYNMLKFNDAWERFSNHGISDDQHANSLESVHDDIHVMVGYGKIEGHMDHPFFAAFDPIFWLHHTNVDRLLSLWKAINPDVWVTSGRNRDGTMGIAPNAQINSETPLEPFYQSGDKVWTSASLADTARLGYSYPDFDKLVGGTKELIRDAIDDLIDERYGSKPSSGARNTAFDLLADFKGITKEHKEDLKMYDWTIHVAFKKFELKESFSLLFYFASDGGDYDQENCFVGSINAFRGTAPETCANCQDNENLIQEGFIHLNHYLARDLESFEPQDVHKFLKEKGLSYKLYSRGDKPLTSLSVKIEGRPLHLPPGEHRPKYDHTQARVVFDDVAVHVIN

[2] = biological target: T1, Tyrosinase (Agaricus bisporus); assay: Reversible inhibition of mushroom tyrosinase diphenolase activity using L-DOPA as substrate at 0.25 to 2.0 uM
[3] = biological target: T1, Tyrosinase (Agaricus bisporus); assay: Competitive inhibition of mushroom tyrosinase diphenolase activity using L-DOPA as substrate at 1.25 to 20 uM by Lineweaver Burk plot analysis
[4] = biological target: T2, Tyrosinase (Agaricus bisporus, UniProt O42713)
T2 sequence (O42713 whole entry): T1 sequence (whole entry)

[5] = biological target: T2, Tyrosinase; remark: listed apart in the source
Description: Competitive inhibition of mushroom tyrosinase polyphenol oxidase activity using L-DOPA as substrate by Dixon plot analysis

[6] = biological target: T1, Tyrosinase (Agaricus bisporus); assay: Inhibition of mushroom tyrosinase diphenolase activity using L-DOPA as substrate

| Structure (SMILES) | Ratio IC50 [1] | inhibition [2] | inhibition [3] | IC50 [4] [µM] | Ki [5] [µM] | inhibition [6] |
| --- | --- | --- | --- | --- | --- | --- |
| O=C1/C(=C\c2ccc(O)cc2O)Cc2ccccc21 | 2.23 | Active | Active | 12.3 | 10.3 | Dose-dependent effect |
| O=C1/C(=C\c2ccc(O)c(O)c2)Cc2ccccc21 | 3.35 | Active | Active | 8.2 | 8.7 | Dose-dependent effect |
